What was measured:
WT GHRHR = target: T1, WT GHRHR (Homo sapiens, UniProt Q02643); experiment: cAMP accumulation; format: cell-based; conditions: for Emax: HEK-293T, HEK293T; for ΔLog (τ/KA): operational model, τ corrected by cell surface expression
T1 construct: Comparison of SV1 with full-length or truncated GHRHR that lacks ECD or the first 89 residues (B); expressed in transfected cells; host or cells: HEK293T
T1 sequence (Q02643 23-423): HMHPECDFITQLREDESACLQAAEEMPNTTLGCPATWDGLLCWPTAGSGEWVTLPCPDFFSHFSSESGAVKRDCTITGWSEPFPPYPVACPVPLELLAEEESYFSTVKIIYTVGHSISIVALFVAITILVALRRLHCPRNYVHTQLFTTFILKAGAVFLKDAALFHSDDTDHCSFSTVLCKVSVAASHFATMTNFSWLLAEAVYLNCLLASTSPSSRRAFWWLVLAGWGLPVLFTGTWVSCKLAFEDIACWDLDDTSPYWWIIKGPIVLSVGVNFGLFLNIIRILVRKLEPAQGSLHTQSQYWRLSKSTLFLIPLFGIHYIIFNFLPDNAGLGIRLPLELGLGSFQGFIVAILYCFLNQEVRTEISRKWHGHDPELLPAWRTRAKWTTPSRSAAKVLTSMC
Experimental: (§1) GHRH-stimulated cAMP accumulation was measured by a LANCE Ultra cAMP kit (PerkinElmer). Briefly, HEK293T cells (24 h after transfection with SV1 or GHRHR) or prostate cancer cells were digested by 0.2% (wt/vol) EDTA and washed once with Dulbecco’s phosphate-buffered saline (PBS). Cells were then resuspended with stimulation buffer (Hanks’ balanced salt solution [HBSS] supplemented with 5 mM HEPES, 0.5 mM IBMX, and 0.1% [wt/vol] bovine serum albumin [BSA], pH 7.4) to a density of 0.6 million cells per milliliter and added to 384-well white plates (3,000 cells per well). […] The reaction was stopped by adding 5 μL Eu-cAMP tracer and 5 μL ULight-anti-cAMP. After 1 h RT incubation, TR-FRET signals (excitation: 320 nm, emission: 615 and 665 nm) were measured by an Envision plate reader (PerkinElmer). cAMP concentrations were interpolated by a standard curve.
(§2) All functional study data were analyzed using Prism 7 (GraphPad) and presented as means ± SEM from at least three independent experiments. Concentration-response curves were evaluated with a three-parameter logistic equation. The significance was determined with either two-tailed Student’s t test or one-way ANOVA, and P < 0.05 is considered statistically significant.
Table S2. Effects of residue mutation or truncation in the ECD of GHRHR on GHRH-induced cAMP […]
Mutant pEC50 Emax (% WT GHRHR) expression ΔLog (τ/KA) […]
cAMP accumulation data were analyzed using a three-parameter logistic equation to determine pEC50 and Emax values. pEC50 is the negative logarithm of the molar concentration of agonist that induced half the maximal response. Emax for mutants is expressed as a percentage of the WT GHRHR. Data were analyzed by nonlinear regression using the operational model equation to determine t he logR values (logτ/KA, i.e., logarithm of the transduction ratio). τ is the effi cacy value of the agonist and was corrected by cell surface expression of the receptor. KA is dissociation constant. Changes in transduction ratio (ΔlogR) were calculated to determine the relative effectiveness of the mutants. All values are means ± S.E.M. of at le ast three ind ep en dent experiments (n = 3-5) conducted in quadruplicate. Statistical analysis was carried out by comparing the control responses in the WT GHRHR. **, P < 0.01 and ***, P < 0.001, determined by one-way […]
(§3) Table S4. Effects of residue mutation in the ligand-binding pocket of SV1 on GHRH-induced cAMP […]
Mutant pEC50 Emax Cell surface expression ΔLog (τ/KA) […]
effectiveness of the mutants. All values are means ± S.E.M. of four independent experiments (n = 4) conducted in quadruplicate. Statistical analysis was carried out by comparing the control responses in the WT-SV1. *, P < 0.05, **, P < 0.01 and ***, P < 0.001, determined by one-way

SV1 mutants = experiment: cAMP accumulation, peptide-binding pocket mutants of SV1; format: cell-based, human; conditions: impairing contacts in the peptide-binding pocket; HEK293T; Fig. 4D
Experimental: as §1

SV1 K118A = experiment: cAMP accumulation; format: cell-based, human; conditions: Table S4, mean ± SEM
Experimental: as §1, §2, §3
(§4) Mutant pEC50 Emax Cell surface expression ΔLog (τ/KA)
(§5) (% WT GHRHR) (% WT GHRHR) cAMP accumulation data were analyzed using a three-parameter logistic equation to determine pEC50 and Emax values. pEC50 is the negative logarithm of the molar concentration of agonist that induced half the maximal response. Emax for mutants is expressed as a percentage of the WT GHRHR. Data were analyzed by nonlinear regression using the operational model equation to determine t he logR values (logτ/KA, i.e., logarithm of the transduction ratio). τ is the effi cacy value of the agonist and was corrected by cell surface expression of the receptor. KA is dissociation constant. Changes in transduction ratio (ΔlogR) were calculated to determine the relative effectiveness of the mutants. All values are means ± S.E.M. of four independent experiments (n = 4) conducted in quadruplicate. Statistical analysis was carried out by comparing the control responses in the WT-SV1. *, P < 0.05, **, P < 0.01 and ***, P < 0.001, determined by one-way

SV1 K66A = experiment: cAMP accumulation; format: cell-based, human; conditions: Table S4, mean ± SEM
Experimental: as §1, §2, §3, §4, §5

SV1 Y69A = experiment: cAMP accumulation; format: cell-based, human; conditions: Table S4, mean ± SEM
Experimental: as §1, §2, §3, §4, §5

SV1 H146A = experiment: cAMP accumulation; format: cell-based, human; conditions: Table S4, mean ± SEM
Experimental: as §1, §2, §3, §4, §5

SV1 V65A = experiment: cAMP accumulation; format: cell-based, human; conditions: Table S4, mean ± SEM
Experimental: as §1, §2, §3, §4, §5

SV1 L294A = experiment: cAMP accumulation; format: cell-based, human; conditions: Table S4, mean ± SEM
Experimental: as §1, §2, §3, §4, §5

SV1 S145A = experiment: cAMP accumulation; format: cell-based, human; conditions: Table S4, mean ± SEM
Experimental: as §1, §2, §3, §4, §5

SV1 I225A = experiment: cAMP accumulation; format: cell-based, human; conditions: Table S4, mean ± SEM
Experimental: as §1, §2, §3, §4, §5

[1] = HEK293T, LANCE Ultra cAMP, 30 min RT, 0.5 mM IBMX, n = 4 in quadruplicate
[2] = HEK293T, n = 4 in quadruplicate
[3] = operational model, τ corrected by cell surface expression, n = 4

## CC[C@H](C)[C@H](NC(=O)[C@H](C)NC(=O)[C@H](CC(=O)O)NC(=O)[C@H](C)NC(=O)[C@@H](N)Cc1ccc(O)cc1)C(=O)N[C@@H](Cc1ccccc1)C(=O)N[C@H](C(=O)N[C@@H](CC(N)=O)C(=O)N[C@@H](CO)C(=O)N[C@@H](Cc1ccc(O)cc1)C(=O)N[C@@H](CCCNC(=N)N)C(=O)N[C@@H](CCCCN)C(=O)N[C@H](C(=O)N[C@@H](CC(C)C)C(=O)NCC(=O)N[C@@H](CCC(N)=O)C(=O)N[C@@H](CC(C)C)C(=O)N[C@@H](CO)C(=O)N[C@@H](C)C(=O)N[C@@H](CCCNC(=N)N)C(=O)N[C@@H](CCCCN)C(=O)N[C@@H](CC(C)C)C(=O)N[C@@H](CC(C)C)C(=O)N[C@@H](CCC(N)=O)C(=O)N[C@@H](CC(=O)O)C(=O)N[C@H](C(=O)N[C@@H](CCSC)C(=O)N[C@@H](CO)C(=O)N[C@@H](CCCNC(=N)N)C(=O)N[C@@H](CCC(N)=O)C(=O)N[C@@H](CCC(N)=O)C(=O)NCC(=O)N[C@@H](CCC(=O)O)C(=O)N[C@@H](CO)C(=O)N[C@@H](CC(N)=O)C(=O)N[C@@H](CCC(N)=O)C(=O)N[C@@H](CCC(=O)O)C(=O)N[C@@H](CCCNC(=N)N)C(=O)NCC(=O)N[C@@H](C)C(=O)N[C@@H](CCCNC(=N)N)C(=O)N[C@@H](C)C(=O)N[C@@H](CCCNC(=N)N)C(=O)N[C@@H](CC(C)C)C(N)=O)[C@@H](C)CC)C(C)C)[C@@H](C)O [GHRH, growth hormone–releasing hormone]
WT GHRHR; Table S4, n = 4 in quadruplicate
  Emax: 100%
WT GHRHR; Table S2, mean ± SEM, n = 3-5 in quadruplicate
  Emax: 100 ± 1.81%
WT GHRHR; Table S2, relative to WT GHRHR, mean ± SEM
  ΔLog (τ/KA): 0 ± 0.05
WT GHRHR; Table S4, mean ± SEM, n = 4
  ΔLog (τ/KA): 0.00 ± 0.09
SV1 mutants
  potency of GHRH-induced cAMP accumulation: dramatically decreased the potency
SV1 K118A; [1]
  pEC50 of cAMP accumulation: 4.61 ± 0.12
SV1 K118A; [2]
  Emax of cAMP accumulation: 92.40 ± 7.25 % WT GHRHR
SV1 K118A; [3]
  ΔLog (τ/KA): -4.51 ± 0.13
SV1 K66A; [1]
  pEC50 of cAMP accumulation: 5.60 ± 0.08
SV1 K66A; [2]
  Emax of cAMP accumulation: 106.82 ± 4.09 % WT GHRHR
SV1 K66A; [3]
  ΔLog (τ/KA): -4.02 ± 0.11
SV1 Y69A; [1]
  pEC50 of cAMP accumulation: 5.44 ± 0.09
SV1 Y69A; [2]
  Emax of cAMP accumulation: 104.75 ± 4.29 % WT GHRHR
SV1 Y69A; [3]
  ΔLog (τ/KA): -3.81 ± 0.10
SV1 H146A; [1]
  pEC50 of cAMP accumulation: 5.07 ± 0.08
SV1 H146A; [2]
  Emax of cAMP accumulation: 101.06 ± 4.83 % WT GHRHR
SV1 H146A; [3]
  ΔLog (τ/KA): -4.64 ± 0.11
SV1 V65A; [1]
  pEC50 of cAMP accumulation: 5.33 ± 0.09
SV1 V65A; [2]
  Emax of cAMP accumulation: 106.08 ± 4.91 % WT GHRHR
SV1 V65A; [3]
  ΔLog (τ/KA): -4.08 ± 0.12
SV1 L294A; [1]
  pEC50 of cAMP accumulation: 5.32 ± 0.10
SV1 L294A; [2]
  Emax of cAMP accumulation: 106.26 ± 5.25 % WT GHRHR
SV1 L294A; [3]
  ΔLog (τ/KA): -4.96 ± 0.12
SV1 S145A; [1]
  pEC50 of cAMP accumulation: 6.34 ± 0.09
SV1 S145A; [2]
  Emax of cAMP accumulation: 101.87 ± 3.50 % WT GHRHR
SV1 S145A; [3]
  ΔLog (τ/KA): -4.22 ± 0.14
SV1 I225A; [1]
  pEC50 of cAMP accumulation: 4.98 ± 0.12
SV1 I225A; [2]
  Emax of cAMP accumulation: 76.03 ± 5.48 % WT GHRHR
SV1 I225A; [3]
  ΔLog (τ/KA): -3.85 ± 0.13

Source: article PMC8501799, “Constitutive signal bias mediated by the human GHRHR splice variant 1” (Proceedings of the National Academy of Sciences of the …, 2021)
